{"source": "patent US7435551B2", "about": "“Method for diagnosing type II diabetes or monitoring therapeutic effects of therapeutic agents for type II diabetes” (Fujirebio, Inc., priority 2001, dated 2008)", "assay_type_in_all_cases": "in vivo, human", "key": {"[1]": {"test": "Three-month pioglitazone administration to type II diabetes patients: serum insulin (EIA) and HOMA-IR", "text": "(§1) 10 male patients with type II diabetes (ages: 40 to 66, 57.7±7.4) either being only under diet therapy (n=7) or being under diet therapy and on medication of sulfonylurea (n=3) were subjected to inspection regarding the following parameters before and after a three-month administration of a thiazolidine derivative, pioglitazone. Body weights, blood glucose levels, and blood pressure levels of those patients and treatments for them were at constant levels for at least 3 months before the examination. The sulfonylurea doses for 3 patients were at constant levels during that period. Pioglitazone was administered to all 10 patients after breakfast every day (orally, 30 mg/day).\n(§2) The systolic blood pressure (SBP) and the diastolic blood pressure (DBP) were measured twice in a sitting position after an at least 5-minute recess. Body heights, weights, and levels of fasting plasma glucose (FPG), HbA1C, serum insulin, adiponectin, total cholesterol (TC), triglyceride (TG), HDL-cholesterol, LDL-cholesterol, and uric acid were measured in the morning after an overnight fast. Levels of plasma glucose, lipids, and uric acid were measured by a common automated measuring technique. The serum concentration of insulin was measured using a commercially available kit, EIA (Tosoh, Tokyo), as already described (Kawai, T. et al., Metabolism 48: 1102-1107, 1999; Hirose, H. et al., Clin. Sci. (Colch) 94: 633-636, 1998; Hirose, H. et al., J. Hypertens. 16: 2007-2012, 1998; Hirose, H. et al., Clin. Sci. (Colch) 100: 145-150, 2001). The insulin resistance index was evaluated by the Homeostasis model assessment (HOMA-IR) (Matthews, D. R. et al., Diabetologia 28: 412-419, 1985; Rudenski, A. S. et al., Metabolism 40: 908-917, 1991)."}, "[2]": {"test": "Three-month pioglitazone administration to type II diabetes patients: body mass index and blood pressure", "conditions": "type II diabetes patients n=10, 30 mg/day orally, mean ± S.D.", "text": "as §1, §2"}, "[3]": {"system": "adiponectin (GBP28)", "test": "Serum GBP28 (adiponectin) by ELISA before and after three-month pioglitazone", "procedure": "The patients who had been employed in Example 1 were also subjected to an assay of the blood concentration of GBP28 before and after the three-month administration of pioglitazone.\nThe anti-human GBP28 monoclonal antibody was prepared in the following manner. First, a solution of GBP28 (about 50 μg) isolated and purified from human serum was micellized with a complete adjuvant, and the resultant was administered to a mouse intraperitoneally. Two weeks later, the mouse was subjected to booster, the spleen was extirpated 3 days thereafter, and the B-cell was collected. The B-cell and the myeloma cell were allowed to fuse with each other to prepare hybridomas, and a hybridoma of interest was administered to a mouse intraperitoneally. Thereafter (20 days later), ascites was processed with DEAE-Sepharose Fast Flow, and the monoclonal antibody of interest was obtained.\nGBP28 was assayed by ELISA in the following manner. A standard GBP28 sample, a 441-fold-diluted unknown sample, and a control sample (100 μl each) were added to a 96-well microtiter plate coated with the mouse anti-GBP28 monoclonal antibody. The plate was incubated for 60 minutes, the well was washed, and incubation was carried out for additional 30 minutes with the horseradish peroxidase-labeled mouse anti-GBP28 monoclonal antibody. The plate was washed again, and incubation was carried out for 30 minutes with a tetramethylbenzidine reagent. Subsequently, 100 μl of aqueous solution of 0.36N sulfuric acid was added to each well to terminate the reaction, and the absorbance at 450 nm was assayed. Intra- and interassay coefficients were 4.8% to 4.9% and 3.3% to 6.8%, respectively."}, "[4]": {"test": "Assessment of body fat distribution by CT scan before and after three-month pioglitazone", "conditions": "type II diabetes patients n=10, 30 mg/day orally, mean ± S.D.", "procedure": "The patients who had been also employed in Example 1 were subjected to the assessment of body fat distribution before and after the three-month administration of pioglitazone. Distributions of subcutaneous fat and visceral fat were determined by assessing the region of a Hounsfield unit of −150 to −50 by a method modified from the computerized tomography (CT) scan at the level of the navel by Tokunaga et al. (Tokunaga, K. et al., Int. J. Obes. 7: 437-445, 1983). CT images at the baseline and after a three-month treatment were taken in accordance with the same protocols that had been previously reported by the present inventors (Kawai, T. et al., Metabolism, 48: 1102-1107, 1999). The V/S ratio was calculated by dividing the visceral fat area (VFA) by the subcutaneous fat area (SFA)."}, "[5]": {"test": "Three-month pioglitazone administration to type II diabetes patients: fasting glucose, HbA1c, lipids, uric acid", "text": "as §1, §2"}, "[6]": {"conditions": "type II diabetes patients n=10, 30 mg/day orally, 3 months, mean ± S.D."}, "[7]": {"conditions": "type II diabetes patients n=10, 30 mg/day orally, logarithmic values, mean ± S.D."}, "[8]": {"conditions": "type II diabetes patients, three-month administration, given without sign"}, "[9]": {"conditions": "type II diabetes patients n=10, 30 mg/day orally, mean ± S.D."}}, "data": [{"compound": "CCc1ccc(CCOc2ccc(CC3SC(=O)NC3=O)cc2)nc1", "note": "(stereo not drawn) [pioglitazone]", "values": [{"measurement": "HOMA-IR (log), after the three-month trace", "setting": "[1]; [6]", "value": "1.6 ± 1.3^"}, {"measurement": "Serum insulin (log), after the three-month trace", "setting": "[1]; [6]", "value": "30 ± 8", "unit": "pmmol/l"}, {"measurement": "HOMA-IR (log), rate of change in 3 months", "setting": "[1]; [7]", "value": "−62.6 ± 22.6"}, {"measurement": "Serum insulin (log), rate of change in 3 months", "setting": "[1]; [7]", "value": "−23.7 ± 13.5"}, {"measurement": "Rate of change of HOMA-IR over three months", "setting": "[1]; [8]", "value": 62.6, "unit": "%"}, {"measurement": "Rate of change of serum insulin over three months", "setting": "[1]; [8]", "value": 23.7, "unit": "%"}, {"measurement": "Body Mass Index, after the three-month trace", "setting": "[2]; 3 months", "value": "27.0 ± 3.5", "unit": "kg/m^2"}, {"measurement": "Body Mass Index, rate of change in 3 months", "setting": "[2]", "value": "2.1 ± 2.2"}, {"measurement": "Body mass index at diastolic blood pressure, rate of change in 3 months", "setting": "[2]", "value": "−6.3 ± 6.9"}, {"measurement": "Body mass index at systolic blood pressure, rate of change in 3 months", "setting": "[2]", "value": "−7.0 ± 4.9"}, {"measurement": "Elevation in serum adiponectin level, times higher than the baselines on average", "setting": "[3]; 10 type II diabetes patients, three-month administration", "value": 3, "unit": "times"}, {"measurement": "GBP28 (log), after the three-month trace", "setting": "[3]; type II diabetes patients n=10, 30 mg/day orally, 3 months, serum, mean ± S.D.", "value": "14.4 ± 2.1", "unit": "μg/l"}, {"measurement": "GBP28 (log), rate of change in 3 months", "setting": "[3]; [7]", "value": "80.9 ± 58^"}, {"measurement": "Rate of change of concentration of GBP28 over three months", "setting": "[3]; type II diabetes patients, three-month administration", "value": 80.9, "unit": "%"}, {"measurement": "Subcutaneous Fat Area, after the three-month trace", "setting": "[4]; 3 months, CT at navel level", "value": "179 ± 81", "unit": "cm^2"}, {"measurement": "Visceral Fat Area, after the three-month trace", "setting": "[4]; 3 months, CT at navel level", "value": "180 ± 46", "unit": "cm^2"}, {"measurement": "V/S ratio, after the three-month trace", "setting": "[4]; 3 months, VFA divided by SFA", "value": "1.1 ± 0.3"}, {"measurement": "Subcutaneous Fat Area, rate of changes in 3 months", "setting": "[4]", "value": "16.1 ± 18.7"}, {"measurement": "V/S ratio, rate of changes in 3 months", "setting": "[4]", "value": "−4.0 ± 11.2"}, {"measurement": "Visceral Fat Area, rate of changes in 3 months", "setting": "[4]", "value": "11.3 ± 21.3"}, {"measurement": "Fasting blood glucose, after the three-month trace", "setting": "[5]; [6]", "value": "7.0 ± 1.0^ mmol/l"}, {"measurement": "HDL cholesterol, after the three-month trace", "setting": "[5]; [6]", "value": "52.1 ± 7.3", "unit": "mg/dL"}, {"measurement": "HbA1c, after the three-month trace", "setting": "[5]; [6]", "value": "6.1 ± 0.6^ %"}, {"measurement": "LDL cholesterol, after the three-month trace", "setting": "[5]; [6]", "value": "138 ± 24", "unit": "mg/dL"}, {"measurement": "Total cholesterol, after the three-month trace", "setting": "[5]; [6]", "value": "218 ± 35", "unit": "mg/dL"}, {"measurement": "Triglyceride (log), after the three-month trace", "setting": "[5]; [6]", "value": "127 ± 2", "unit": "mg/dl"}, {"measurement": "Uric acid, after the three-month trace", "setting": "[5]; [6]", "value": "5.6 ± 1.3^ mg/dl"}, {"measurement": "Triglyceride (log), rate of change in 3 months", "setting": "[5]; [7]", "value": "−1.0 ± 6.3"}, {"measurement": "Fasting blood glucose, rate of change in 3 months", "setting": "[5]; [9]", "value": "−18.2 ± 9.3"}, {"measurement": "HDL cholesterol, rate of change in 3 months", "setting": "[5]; [9]", "value": "2.0 ± 11.2"}, {"measurement": "HbA1c, rate of change in 3 months", "setting": "[5]; [9]", "value": "−9.0 ± 8.8"}, {"measurement": "LDL cholesterol, rate of change in 3 months", "setting": "[5]; [9]", "value": "12.3 ± 12.8"}, {"measurement": "Total cholesterol, rate of change in 3 months", "setting": "[5]; [9]", "value": "4.8 ± 10.9"}, {"measurement": "Uric acid, rate of change in 3 months", "setting": "[5]; [9]", "value": "−5.0 ± 9.5"}, {"measurement": "Rate of change of HbA1C over three months", "setting": "[5]; [8]", "value": 9.0, "unit": "%"}, {"measurement": "Rate of change of blood glucose over three months", "setting": "[5]; [8]", "value": 18.2, "unit": "%"}]}]}
